# Reference: patent US11370798B2 (Vertex Pharmaceuticals Incorporated, priority 2012, dated 2022)
# System: HCT116 colorectal cancer cells
# Test: Cisplatin sensitization assay (96 h cell viability MTS);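 also: Test-compound concentration that lowers the Cisplatin IC50 by a set fold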
# Assay type: cell-based
# Details: compound and Cisplatin added simultaneously, Cisplatin sensitization value
# How it was run: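 Viability read by MTS (1 h at 37° C) after 96 h co-exposure at 37° C, 5% CO2. Test compound and cisplatin were dosed simultaneously in a full concentration matrix, each 2-fold serially diluted from 10 μM final; sensitization values binned in μM.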
row,Compound,Cisplatin Sensitization Assay
1,"Nc1nn2cc(F)cnc2c1C(=O)Nc1cnccc1O[C@H]1Cc2nccn2C1 [I-O-16, (S)-2-amino-N-(4-((6,7-dihydro-5H-pyrrolo[1,2-a]imidazol-6-yl)oxy)pyridin-3-yl)-6-fluoropyrazolo[1,5-a]pyrimidine-3-carboxamide]",+++ (Cisplatin sensitization value of <0.02 μM)
2,"CN(C)C(=O)[C@H]1CC[C@@H](Oc2ccncc2NC(=O)c2c(N)nn3cc(F)cnc23)CC1 [I-O-17, 2-amino-N-(4-(((1s,4s)-4-(dimethylcarbamoyl)cyclohexyl)oxy)pyridin-3-yl)-6-fluoropyrazolo[1,5-a]pyrimidine-3-carboxamide]",+++ (Cisplatin sensitization value of <0.02 μM)
3,"CN1CCN(C(=O)[C@H]2CC[C@@H](Oc3ccncc3NC(=O)c3c(N)nn4cc(F)cnc34)CC2)CC1 [I-O-19, 2-amino-6-fluoro-N-(4-(((1s,4s)-4-(4-methylpiperazine-1-carbonyl)cyclohexyl)oxy)pyridin-3-yl)pyrazolo[1,5-a]pyrimidine-3-carboxamide]",+++ (Cisplatin sensitization value of <0.02 μM)
4,"CCC(C#N)c1cnc2c(C(=O)Nc3cnccc3OC)c(N)nn2c1 (stereo not shown) [I-O-20, 2-amino-6-(1-cyanopropyl)-N-(4-methoxypyridin-3-yl)pyrazolo[1,5-a]pyrimidine-3-carboxamide]",++ (Cisplatin sensitization value>0.02 μM but <0.2 μM)
5,"COc1ccncc1NC(=O)c1c(N)nn2cc(C(C)C#N)cnc12 (stereo not shown) [I-O-21, 2-amino-6-(1-cyanoethyl)-N-(4-methoxypyridin-3-yl)pyrazolo[1,5-a]pyrimidine-3-carboxamide]",++ (Cisplatin sensitization value>0.02 μM but <0.2 μM)
6,"CN1CCC(Oc2ccncc2NC(=O)c2c(N)nn3cc(CC#N)cnc23)CC1 [I-O-23, 2-amino-6-(cyanomethyl)-N-(4-((1-methylpiperidin-4-yl)oxy)pyridin-3-yl)pyrazolo[1,5-a]pyrimidine-3-carboxamide]",+++ (Cisplatin sensitization value of <0.02 μM)
7,"CN(C)CCOc1ccncc1NC(=O)c1c(N)nn2cc(CC#N)cnc12 [I-O-24, 2-amino-6-(cyanomethyl)-N-(4-(2-(dimethylamino)ethoxy)pyridin-3-yl)pyrazolo[1,5-a]pyrimidine-3-carboxamide]",++ (Cisplatin sensitization value>0.02 μM but <0.2 μM)
8,"N#CCc1cnc2c(C(=O)Nc3cnccc3Oc3ccccc3)c(N)nn2c1 [I-O-25, 2-amino-6-(cyanomethyl)-N-(4-phenoxypyridin-3-yl)pyrazolo[1,5-a]pyrimidine-3-carboxamide]",+++ (Cisplatin sensitization value of <0.02 μM)
9,"COc1ccncc1NC(=O)c1c(N)nn2cc(CC#N)cnc12 [I-O-26, 2-amino-6-(cyanomethyl)-N-(4-methoxypyridin-3-yl)pyrazolo[1,5-a]pyrimidine-3-carboxamide]",++ (Cisplatin sensitization value>0.02 μM but <0.2 μM)
10,"COc1cc(Cl)ncc1NC(=O)c1c(N)nn2cc(CC#N)cnc12 [I-O-27, 2-amino-N-(6-chloro-4-methoxypyridin-3-yl)-6-(cyanomethyl)pyrazolo[1,5-a]pyrimidine-3-carboxamide]",++ (Cisplatin sensitization value>0.02 μM but <0.2 μM)
11,"CCOc1ccncc1NC(=O)c1c(N)nn2cc(CC#N)cnc12 [I-O-28, 2-amino-6-(cyanomethyl)-N-(4-ethoxypyridin-3-yl)pyrazolo[1,5-a]pyrimidine-3-carboxamide]",+++ (Cisplatin sensitization value of <0.02 μM)
12,"COCCOc1ccncc1NC(=O)c1c(N)nn2cc(CC#N)cnc12 [I-O-29, 2-amino-6-(cyanomethyl)-N-(4-(2-methoxyethoxy)pyridin-3-yl)pyrazolo[1,5-a]pyrimidine-3-carboxamide]",+++ (Cisplatin sensitization value of <0.02 μM)
13,"N#CCc1cnc2c(C(=O)Nc3cnccc3OC3CCOCC3)c(N)nn2c1 [I-O-30, 2-amino-6-(cyanomethyl)-N-(4-((tetrahydro-2H-pyran-4-yl)oxy)pyridin-3-yl)pyrazolo[1,5-a]pyrimidine-3-carboxamide]",+++ (Cisplatin sensitization value of <0.02 μM)
14,"N#CCc1cnc2c(C(=O)Nc3cnccc3O[C@@H]3CCOC3)c(N)nn2c1 [I-O-31, (R)-2-amino-6-(cyanomethyl)-N-(4-((tetrahydrofuran-3-yl)oxy)pyridin-3-yl)pyrazolo[1,5-a]pyrimidine-3-carboxamide]",+++ (Cisplatin sensitization value of <0.02 μM)
15,"N#CCc1cnc2c(C(=O)Nc3cnccc3OCC3CC3)c(N)nn2c1 [I-O-32, 2-amino-6-(cyanomethyl)-N-(4-(cyclopropylmethoxy)pyridin-3-yl)pyrazolo[1,5-a]pyrimidine-3-carboxamide]",+++ (Cisplatin sensitization value of <0.02 μM)
16,"N#CCc1cnc2c(C(=O)Nc3cnccc3OCCO)c(N)nn2c1 [I-O-33, 2-amino-6-(cyanomethyl)-N-(4-(2-hydroxyethoxy)pyridin-3-yl)pyrazolo[1,5-a]pyrimidine-3-carboxamide]",++ (Cisplatin sensitization value>0.02 μM but <0.2 μM)

row,Compound,Cisplatin Sensitization Assay
1,"N#CCc1cnc2c(C(=O)Nc3cnccc3OCC(F)(F)F)c(N)nn2c1 [I-O-34, 2-amino-6-(cyanomethyl)-N-(4-(2,2,2-trifluoroethoxy)pyridin-3-yl)pyrazolo[1,5-a]pyrimidine-3-carboxamide]",++ (Cisplatin sensitization value>0.02 μM but <0.2 μM)
2,"CC(C)Oc1ccncc1NC(=O)c1c(N)nn2cc(CC#N)cnc12 [I-O-35, 2-amino-6-(cyanomethyl)-N-(4-isopropoxypyridin-3-yl)pyrazolo[1,5-a]pyrimidine-3-carboxamide]",+++ (Cisplatin sensitization value of <0.02 μM)
3,"N#CCc1cnc2c(C(=O)Nc3cnccc3OC3CCC3)c(N)nn2c1 [I-O-36, 2-amino-6-(cyanomethyl)-N-(4-cyclobutoxypyridin-3-yl)pyrazolo[1,5-a]pyrimidine-3-carboxamide]",+++ (Cisplatin sensitization value of <0.02 μM)
4,"N#CCc1cnc2c(C(=O)Nc3cnccc3OC3COC3)c(N)nn2c1 [I-O-38, 2-amino-6-(cyanomethyl)-N-(4-(oxetan-3-yloxy)pyridin-3-yl)pyrazolo[1,5-a]pyrimidine-3-carboxamide]",+++ (Cisplatin sensitization value of <0.02 μM)
5,"N#CCc1cnc2c(C(=O)Nc3cnccc3OC3CCCCC3)c(N)nn2c1 [I-O-39, 2-amino-6-(cyanomethyl)-N-(4-(cyclohexyloxy)pyridin-3-yl)pyrazolo[1,5-a]pyrimidine-3-carboxamide]",+++ (Cisplatin sensitization value of <0.02 μM)
6,"N#CCc1cnc2c(C(=O)Nc3cnccc3OCCCO)c(N)nn2c1 [I-O-40, 2-amino-6-(cyanomethyl)-N-(4-(3-hydroxypropoxy)pyridin-3-yl)pyrazolo[1,5-a]pyrimidine-3-carboxamide]",++ (Cisplatin sensitization value>0.02 μM but <0.2 μM)
7,"N#CCc1cnc2c(C(=O)Nc3cnccc3OC3CCCOC3)c(N)nn2c1 (stereo not shown) [I-O-41, 2-amino-6-(cyanomethyl)-N-(4-((tetrahydro-2H-pyran-3-yl)oxy)pyridin-3-yl)pyrazolo[1,5-a]pyrimidine-3-carboxamide]",+++ (Cisplatin sensitization value of <0.02 μM)
8,"N#CCc1cnc2c(C(=O)Nc3cnccc3O[C@H]3CCOC3)c(N)nn2c1 [I-O-42, (S)-2-amino-6-(cyanomethyl)-N-(4-((tetrahydrofuran-3-yl)oxy)pyridin-3-yl)pyrazolo[1,5-a]pyrimidine-3-carboxamide]",+++ (Cisplatin sensitization value of <0.02 μM)
9,"N#CCc1cnc2c(C(=O)Nc3cnccc3OC3CCCC3)c(N)nn2c1 [I-O-43, 2-amino-6-(cyanomethyl)-N-(4-(cyclopentyloxy)pyridin-3-yl)pyrazolo[1,5-a]pyrimidine-3-carboxamide]",+++ (Cisplatin sensitization value of <0.02 μM)
10,"Nc1nn2cc(F)cnc2c1C(=O)Nc1cnccc1OC1CC[S+]([O-])CC1 (stereo not shown) [I-O-44, 2-amino-6-fluoro-N-(4-((1-oxidotetrahydro-2H-thiopyran-4-yl)oxy)pyridin-3-yl)pyrazolo[1,5-a]pyrimidine-3-carboxamide]",++ (Cisplatin sensitization value>0.02 μM but <0.2 μM)
11,"Nc1nn2cc(F)cnc2c1C(=O)Nc1cnccc1OC1CCS(=O)(=O)CC1 [I-O-45, 2-amino-N-(4-((1,1-dioxidotetrahydro-2H-thiopyran-4-yl)oxy)pyridin-3-yl)-6-fluoropyrazolo[1,5-a]pyrimidine-3-carboxamide]",+++ (Cisplatin sensitization value of <0.02 μM)
12,"CN1CCC(Oc2c(Cl)cncc2NC(=O)c2c(N)nn3cc(Cl)cnc23)CC1 [I-O-46, 2-amino-6-chloro-N-(5-chloro-4-((1-methylpiperidin-4-yl)oxy)pyridin-3-yl)pyrazolo[1,5-a]pyrimidine-3-carboxamide]",+ (Cisplatin sensitization value>0.2 μM but <5 μM)
13,"CN(C)CCOCCOc1ccncc1NC(=O)c1c(N)nn2cc(Cl)cnc12 [I-O-47, 2-amino-6-chloro-N-(4-(2-(2-(dimethylamino)ethoxy)ethoxy)pyridin-3-yl)pyrazolo[1,5-a]pyrimidine-3-carboxamide]",+ (Cisplatin sensitization value>0.2 μM but <5 μM)
14,"CN(C)CCOc1ccncc1NC(=O)c1c(N)nn2cc(Cl)cnc12 [I-O-48, 2-amino-6-chloro-N-(4-(2-(dimethylamino)ethoxy)pyridin-3-yl)pyrazolo[1,5-a]pyrimidine-3-carboxamide]",++ (Cisplatin sensitization value>0.02 μM but <0.2 μM)
15,"CN1CCC[C@@H]1COc1ccncc1NC(=O)c1c(N)nn2cc(Cl)cnc12 [I-O-49, (R)-2-amino-6-chloro-N-(4-((1-methylpyrrolidin-2-yl)methoxy)pyridin-3-yl)pyrazolo[1,5-a]pyrimidine-3-carboxamide]",+ (Cisplatin sensitization value>0.2 μM but <5 μM)
